Measured values as given in patent publication US20140242609A1, “Diagnosis and treatment of kidney stones, methods and compositions therefor” (Washington University, priority 2013, published 2014).
“Also recorded” adds a separate entry of the source.

What was measured:
[1] = tested on: claudin-14 promoter; test: lacZ reporter of endogenous claudin-14 promoter activity in claudin-14+/lacZ mice; format: in vivo, mouse
Experimental: (§1) The inventors also sought for alternative mechanisms for claudin-14 gene regulation. Because the claudin-14 KO mouse was generated with a lacZ reporter gene replacing the last exon of claudin-14 gene (including the coding region and 3″-UTR) (Ben-Yosef et al., 2003), the expression of lacZ gene would provide a faithful measurement for endogenous claudin-14 promoter activity regardless of any microRNA based regulation. The claudin-14^+/lacZ mice were treated with cinacalcet or NPS2143 as described for WT mice.
as §1, with “explored” for “also sought for”, “3′-UTR; Ben-Yosef, T.,” for “3″-UTR) (Ben-Yosef”, “2003)” for “2003),”

[2] = 1 hr renal clearance measurements (FITC-inulin), plasma and urine electrolytes; format: in vivo, mouse
Experimental: (§2) The method for performing renal clearance measurements in the mouse has been described by Hou et al., (2007; 2009). Mice were anesthetized by i.p. injection of Inactin (Sigma; 100 mg/kg). The jugular vein was catheterized for i.v. infusion of 0.9% saline at 2 μL/min, with 1% FITC-inulin included in the infusate. After an equilibration period of 60 min, renal clearance measurements were carried out for a 60 min period. Urine was collected under mineral oil, and 30 μL blood sample was taken at hourly intervals. Urine and plasma Ca^2+ and Mg^2+ concentrations were measured by atomic flame absorption spectrophotometer (PerkinElmer). Urine and plasma FITC-inulin levels were measured in 100 mM HEPES buffer (pH7.0) with fluorescence spectrophotometer (BioTek). The fractional excretion of electrolytes was calculated using the following equation FEion=V×Uion/(GFR×Pion), where GFR was calculated according to the clearance rate of FITC-inulin (GFR=V×Uinulin/Pinulin).
as §2, with “Hou, J.,” for “Hou”, “2007 and Hou, J., et al., 2009.” for “(2007; 2009).”, “(Sigma:” for “(Sigma;”, “Ca^++” for “Ca^2+”, “Mg^++” for “Mg^2+”, “(PerkinEhner).” for “(PerkinElmer).”

[3] = tested on: claudin-14 protein; test: claudin-14 immunostaining, tight junction localization in mouse kidney sections; format: in vivo; details: 30 mg/kg BW−1
Experimental: (§3) For viewing claudin localization in the kidney, fresh cryostat sections (10 μm) were fixed with cold methanol at −20° C., followed by blocking with PBS containing 10% FBS, incubation with primary antibody (1:300) and FITC-labeled secondary antibody (1:200). After washing with PBS, slides were mounted with Mowiol (Calbiochem). Epifluorescence images were taken with a Nikon 80i photomicroscope equipped with a DS-QilMc digital camera. All images were converted to TIFF format and arranged using Photoshop CS4 (Adobe).
as §3, with “DS-Qi1Mc” for “DS-QilMc”

[4] = tested on: pri-miR-9-2; test: pri-miR-9-2 transcript levels in TALH of treated mouse kidneys (real-time PCR); format: in vivo; details: 30 mg/kg BW−1; 2 hrs or 8 hrs
Text: Total RNA including microRNA was extracted using Trizol (Invitrogen). Cellular mRNA was reverse transcribed using the Superscript-III kit (Invitrogen), followed by real-time PCR amplification using SYBR Green PCR Master Mix (Bio-Rad) and Eppendorf Realplex2S system. The design of claudin-14 primers was described above. The design of pri-miRNA primers was according to Ma et al., (2010). Results were expressed as 2^−ΔCt values with ΔCT=Ctgene−Ctβ-actin.
To measure the transcriptional level for microRNA gene in vivo in the kidney, the inventors designed primers (see Methods; Table 2) to amplify the pri-miRNA molecule, the original transcript for microRNA gene that had not yet been subjected to any nuclear or cellular processing. Because both miR-9 and miR-374 had broader localization profiles along the nephron, the inventors isolated the TALH tubular cells for pri-miRNA analyses from the mouse kidney described elsewhere in this study. WT mice (strain: C57BL/6) were treated with NPS2143 or cinacalcet as described for claudin-14 analyses and assayed for pri-miRNA levels in isolated TALH cells at 2 hrs and 8 hrs respectively. […] NPS2143 and cinacalcet also profoundly regulated pri-miR-374. […]
Total RNA including microRNA was extracted using Trizol (Invitrogen). […] Results were expressed as 2^−ΔCt values with ΔCT=Ctgene−Ctβ-actin.

[5] = WT + CsA (25 mg/kg BW−1 per day, 6 days), 2 hr, Veh = CsA alone
[6] = WT, 2 hr, single dose 30 mg/kg BW−1
[7] = WT, 2 hr, single dose 30 mg/kg BW−1, 30 mg/kg
[8] = WT, 2 hr, single dose 30 mg/kg BW−1, listed as NPS, 30 mg/kg
[9] = WT, 8 hr, single dose 30 mg/kg BW−1
[10] = claudin-14 KO, 2 hr, single dose 30 mg/kg BW−1
[11] = WT, 2 hr, single dose 30 mg/kg BW−1, listed as Cina, 30 mg/kg

Structure (SMILES) | ECa [2, 5] | FECa (fractional excretion of Ca++) [2, 5] | FEMg (fractional excretion of Mg++) [2, 5] | PCa (plasma Ca++ concentration) [2, 5] | PMg (plasma Mg++ concentration) [2, 5] | ECa [2, 6] | EMg [2, 6] | FEMg (fractional excretion of Mg++) [2, 6] | PMg (plasma Mg++ concentration) [2, 6] | FECa (fractional excretion of Ca++) [2, 7] | PCa (plasma Ca++ concentration) [2, 7] | ECa [2, 9] | EMg [2, 9] | FECa (fractional excretion of Ca++) [2, 9] | FEMg (fractional excretion of Mg++) [2, 9] | PCa (plasma Ca++ concentration) [2, 9] | PMg (plasma Mg++ concentration) [2, 9] | ECa [2, 10] | EMg [2, 10] | FECa (fractional excretion of Ca++) [2, 10] | also measured
O=C(CCCCCCC(=O)Nc1ccccc1)NO [SAHA, Suberanilohydroxamic acid] | – | – | – | – | – | – | – | – | – | – | – | – | – | – | – | – | – | – | – | – | lacZ mRNA levels ([1]; 25 mg/kg BW−1, 4 hrs): no significant change
CC(C)(Cc1ccc2ccccc2c1)NC[C@@H](O)COc1cccc(Cl)c1C#N [NPS2143] | 0.38 ± 0.02 ug/hr · g | 0.95 ± 0.14% | 11.96 ± 2.27% | 10.50 ± 0.18 mg/dL | 1.67 ± 0.02 mg/dL | 0.06 ± 0.01 ug/hr · g | 1.04 ± 0.06 ug/hr · g | 7.59 ± 0.32 % | 2.74 ± 0.15 mg/dL | 0.09±0.01% | 11.15 ± 0.21 mg/dL | 0.25 ± 0.04 ug/hr · g | 1.41 ± 0.18 ug/hr · g | 0.58 ± 0.11% | 14.88 ± 2.63% | 10.63 ± 0.43 mg/dL | 2.37 ± 0.09 mg/dL | 0.25 ± 0.09 ug/hr · g | 1.02 ± 0.12 ug/hr · g | 0.74 ± 0.26% | EMg [2, 5]: 0.80 ± 0.19 ug/hr · g; FECa (fractional excretion of Ca++) [2, 8]: 0.09 ± 0.01 %; PCa (plasma Ca++ concentration) [2, 8]: 11.15 ± 0.21 mg/dL; FEMg (fractional excretion of Mg++) [2, 10]: 10.71 ± 2.16%; PCa (plasma Ca++ concentration) [2, 10]: 10.22 ± 0.30 mg/dL; PMg (plasma Mg++ concentration) [2, 10]: 2.88 ± 0.12 mg/dL; claudin-14 staining in tight junctions of TALH tubules [3]: reduced the staining signal for claudin-14 to punctate foci; also recorded: reduced the staining signal for claudin-14 to punctuate foci; pri-miR-9-2 level, change [4]: Neither pri-miR-9-2 (FIG. 12B) nor pri-miR-9-3 level (FIG. 12C) was significantly altered; also recorded: Neither pri-miR-9-2 (FIG. 29B) nor pri-miR-9-3 level (FIG. 29C) was significantly altered
C[C@@H](NCCCc1cccc(C(F)(F)F)c1)c1cccc2ccccc12 [cinacalcet] | 0.79 ± 0.07 ug/hr · g | 1.93 ± 0.20 % | 14.47 ± 1.13% | 8.09 ± 0.32 mg/dL | 1.58 ± 0.04 mg/dL | 1.33 ± 0.13 ug/hr · g | 2.32 ± 0.26 ug/hr · g | 28.14 ± 2.93 % | 1.96 ± 0.04 mg/dL | 3.82±0.52% | 8.44 ± 0.27 mg/dL | 0.22 ± 0.02 ug/hr · g | 1.25 ± 0.09 ug/hr · g | 0.88 ± 0.14% | 18.80 ± 1.48% | 9.58 ± 0.21 mg/dL | 2.44 ± 0.16 mg/dL | 0.31 ± 0.03 ug/hr · g | 1.12 ± 0.03 ug/hr · g | 1.08 ± 0.26% | FECa (fractional excretion of Ca++) [2, 11]: 3.82 ± 0.52 %; PCa (plasma Ca++ concentration) [2, 11]: 8.44 ± 0.27 mg/dL; FEMg (fractional excretion of Mg++) [2, 10]: 12.35 ± 2.21%; PCa (plasma Ca++ concentration) [2, 10]: 8.47 ± 0.09 mg/dL; PMg (plasma Mg++ concentration) [2, 10]: 2.64 ± 0.10 mg/dL; cinacalcet induced hypercalciuria, level higher than vehicle ([2]; cyclosporine-A pre-treated animals, 2 hrs): 1.93 fold; lacZ mRNA levels ([1]; claudin-14+/lacZ mouse kidneys, single-dose 30 mg/kg BW−1, 2 hrs): no change; β-galactosidase activity ([1]; isolated TALH cells of claudin-14+/lacZ mice, single-dose 30 mg/kg BW−1, 2 hrs): no change; claudin-14 staining in tight junctions of TALH tubules [3]: profoundly upregulated claudin-14 protein levels in the tight junction; pri-miR-9-2 level, change [4]: Neither pri-miR-9-2 (FIG. 12B) nor pri-miR-9-3 level (FIG. 12C) was significantly altered; also recorded: Neither pri-miR-9-2 (FIG. 29B) nor pri-miR-9-3 level (FIG. 29C) was significantly altered
